According to ChEMBL document CHEMBL1955806, “Design, synthesis, single-crystal and preliminary antitumor activity of novel arenesulfonylimidazolidin-2-ones” (2012):

Key:
Format in all cases: functional
SNB-75 = assay: Growth inhibition of human SNB75 cells at 10 uM after 48 hrs by sulforhodamine B assay; conditions: SNB-75, 48 h, read-out: GI
OVCAR-8 = assay: Growth inhibition of human OVCAR8 cells at 10 uM after 48 hrs by sulforhodamine B assay; conditions: OVCAR-8, 48 h, read-out: GI
HCC 2998 = assay: Growth inhibition of human HCC2998 cells at 10 uM after 48 hrs by sulforhodamine B assay; conditions: HCC 2998, 48 h, read-out: GI
HCT-116 = assay: Growth inhibition of human HCT116 cells at 10 uM after 48 hrs by sulforhodamine B assay; conditions: HCT-116, 48 h, read-out: GI
HT-29 = assay: Growth inhibition of human HT-29 cells at 10 uM after 48 hrs by sulforhodamine B assay; conditions: HT-29, 48 h, read-out: GI
SF-295 = assay: Growth inhibition of human SF295 cells at 10 uM after 48 hrs by sulforhodamine B assay; conditions: SF-295, 48 h, read-out: GI
NCI-H322M = assay: Growth inhibition of human NCI-H322M cells at 10 uM after 48 hrs by sulforhodamine B assay; conditions: read-out: GI
786-0 = assay: Growth inhibition of human 786-0 cells at 10 uM after 48 hrs by sulforhodamine B assay; conditions: 786-0, 48 h, read-out: GI
OVCAR-5 = assay: Growth inhibition of human OVCAR5 cells at 10 uM after 48 hrs by sulforhodamine B assay; conditions: OVCAR-5, 48 h, read-out: GI
T47D = assay: Growth inhibition of human T47D cells at 10 uM after 48 hrs by sulforhodamine B assay; conditions: read-out: GI
MCF7 = assay: Growth inhibition of human MCF7 cells at 10 uM after 48 hrs by sulforhodamine B assay; conditions: MCF7, 48 h, read-out: GI
SF-268 = assay: Growth inhibition of human SF268 cells at 10 uM after 48 hrs by sulforhodamine B assay; conditions: SF-268, 48 h, read-out: GI
OVCAR-4 = assay: Growth inhibition of human OVCAR4 cells at 10 uM after 48 hrs by sulforhodamine B assay; conditions: OVCAR-4, 48 h, read-out: GI
M14 = assay: Growth inhibition of human M14 cells at 10 uM after 48 hrs by sulforhodamine B assay; conditions: M14, 48 h, read-out: GI
NCI/ADR-RES = assay: Growth inhibition of human NCI/ADR-RES cells at 10 uM after 48 hrs by sulforhodamine B assay; conditions: read-out: GI
SK-MEL-5 = assay: Growth inhibition of human SK-MEL-5 cells at 10 uM after 48 hrs by sulforhodamine B assay; conditions: SK-MEL-5, 48 h, read-out: GI

CO[C@@H]1[C@@H](OC)N(S(=O)(=O)c2ccc(Cl)cc2)C(=O)N1S(=O)(=O)c1ccc(Cl)cc1 (relative stereo)
inhibition of growth at 10 µM (SNB-75): 19.7% | inhibition of growth at 10 µM (OVCAR-8): 9.39% | inhibition of growth at 10 µM (HCC 2998): 5.43% | inhibition of growth at 10 µM (HCT-116): 33.1% | inhibition of growth at 10 µM (HT-29): 16% | inhibition of growth at 10 µM (SF-295): 34% | inhibition of growth at 10 µM (NCI-H322M): 14.7% | inhibition of growth at 10 µM (786-0): 16.8% | inhibition of growth at 10 µM (OVCAR-5): 8.25% | inhibition of growth at 10 µM (T47D): 9.2% | inhibition of growth at 10 µM (MCF7): 16% | inhibition of growth at 10 µM (SF-268): 1.84% | inhibition of growth at 10 µM (OVCAR-4): 21.3% | inhibition of growth at 10 µM (M14): 6.23% | inhibition of growth at 10 µM (NCI/ADR-RES): 13.8% | inhibition of growth at 10 µM (SK-MEL-5): -2.95%
